Test system: soluble epoxide hydrolase (sEH)
Experiment: Fluorescent assay for mouse and human soluble epoxide hydrolase (CMNPC substrate)
Format: biochemical
Details: inhibitor at 50 nM; recombinant sEH, CMNPC substrate 5 μM, 30° C., pH 7.0; mouse or human enzyme not given
Excerpt: Fluorescent Assay for Mouse and Human Soluble Epoxide Hydrolase
Recombinant mouse sEH (MsEH) and human sEH (HsEH) were produced in a baculovirus expression system as previously reported. Grant et al., J. Biol. Chem., 268:17628-17633 (1993); Beetham et al., Arch. Biochem. Biophys., 305:197-201 (1993). The expressed proteins were purified from cell lysate by affinity chromatography. Wixtrom et al., Anal. Biochem., 169:71-80 (1988). Protein concentration was quantified using the Pierce BCA assay using bovine serum albumin as the calibrating standard. The preparations were at least 97% pure as judged by SDS-PAGE and scanning densitometry. They contained no detectable esterase or glutathione transferase activity which can interfere with the assay. The assay was also evaluated with similar results in crude cell lysates or homogenate of tissues.
The IC50s for each inhibitor were according to the following procedure:
Cyano(2-methoxynaphthalen-6-yl)methyl(3-phenyloxiran-2-yl)methyl carbonate (CMNPC; Jones P. D. et. al.; Analytical Biochemistry 2005; 343: pp.66-75)
Bis/Tris HCl 25 mM pH 7.0 containing 0.1 mg/mL of BSA (buffer A)
CMNPC at 0.25 mM in DMSO.
Mother solution of enzyme in buffer A (Mouse sEH at 6 μg/mL and Human sEH at 5 μg/mL).
Inhibitor dissolved in DMSO at the appropriate concentration.
In a black 96 well plate, fill all the wells with 150 μL of buffer A.
Add 2 μL of DMSO in well A2 and A3, and then add 2 μL of inhibitor solution in A1 and A4 through A12.
Add 150 μL of buffer A in row A, then mix several time and transfer 150 μL to row B. Repeat this operation up to row H. The 150 μL removed from row H is discarded.
Add 20 μL of buffer A in column 1 and 2, then add 20 μL of enzyme solution to column 3 to 12.
Incubate the plate for 5 minutes in the plate reader at 30° C.
During incubation prepare the working solution of substrate by mixing 3.68 mL of buffer A (4×0.920 mL) with 266 μL (2×133 μL) of substrate solution).
At t=0, add 30 μL of working substrate solution with multi-channel pipette labeled “Briggs 303” and start the reading ([S]final: 5 μM).
Read with ex: 330 nm (20 nm) and em: 465 nm (20 nm) every 30 second for 10 minutes. The velocities are used to analyze and calculate the IC50s.

Row | SMILES | % Inhibition at 50 nM
1 | CC(=O)N1CCCC(NC(=O)NC23CC4CC(CC(C4)C2)C3)C1 (stereo not shown) [Compound 1, 1-(1-Acetyl-piperidin-3-yl)-3-adamantan-1-yl-urea] | 69%
2 | CS(=O)(=O)N1CCCC(NC(=O)NC23CC4CC(CC(C4)C2)C3)C1 (stereo not shown) [Compound 2, 1-Adamantan-1-yl-3-(1-methanesulfonyl-piperidin-3-yl)-urea] | 76%
3 | O=C(NC1CCCN(S(=O)(=O)c2ccc(Cl)cc2)C1)NC12CC3CC(CC(C3)C1)C2 (stereo not shown) [Compound 3, 1-Adamantan-1-yl-3-[1-(4-chloro-benzenesulfonyl)-piperidin-3-yl]-urea] | 94%
4 | O=C(NC1CCCN(S(=O)(=O)c2cccc(C(F)(F)F)c2)C1)NC12CC3CC(CC(C3)C1)C2 (stereo not shown) [Compound 4, 1-Adamantan-1-yl-3-[1-(3-trifluoromethyl-benzenesulfonyl)-piperidin-3-yl]-urea] | 95%

Source: patent publication US20080200444A1, “SOLUBLE EPOXIDE HYDROLASE INHIBITORS” (Arete Therapeutics, Inc., priority 2006, published 2008)
